The first assay has as its target rBIIa/beta 1 sodium channels expressed in Xenopus oocytes (Rattus norvegicus, UniProt P04775). Nature of the assay: Electrophysiological assay, two-electrode voltage clamp in oocytes, inactivated-state protocol. It counts as cell-based.
Details: not given
On the procedure:
An electrophysiological assay was used to measure potencies of compounds of the present invention rBIIa/beta 1 sodium channels expressed in Xenopus oocytes.
Preparation of cRNA encoding cloned rat brain type IIa (rBIIa) and beta 1 (β1): cDNA clones encoding the rat brain beta 1 subunit are cloned in house using standard methods, and mRNA are prepared by standard methods. mRNA encoding rBIIa is provided by Dr. A. Golden (UC Irvine). The mRNAs are diluted and stored at −80° C. in 1 μL aliquots until injection.
Preparation of oocytes: Mature female Xenopus laevis are anaesthetized (20–40 min) using 0.15% 3-aminobenzoic acid ethyl ester (MS-222) following established procedures (Woodward, R. M., et al., Mol. Pharmacol. 41:89–103 (1992)).
Two to six ovarian lobes are surgically removed. Oocytes at developmental stages V–VI are dissected from the ovary, wherein the oocytes are still surrounded by enveloping ovarian tissues. Oocytes are defolliculated on the day of surgery by treatment with collagenase (0.5 mg/mL Sigma Type I, or Boehringer Mannheim Type A, for 0.5–1 hr). Treated oocytes are vortexed to dislodge epithelia, washed repeatedly and stored in Barth's medium containing 88 mM NaCl, 1 mM KCl, 0.41 mM CaCl2, 0.33 mM Ca(NO3)2, 0.82 mM MgSO4, 2.4 mM NaHCO3, 5 mM HEPES, pH 7.4 adjusted with 0.1 mg/mL gentamycin sulphate.
Micro-injection of oocytes: Defolliculated oocytes are micro-injected using a Nanoject injection system (Drummond Scientific Co., Broomall, Pa.). Injection pipettes are beveled to minimize clogging. Tip diameter of injection pipettes is 15–35 μm. Oocytes are microinjected with approximately 50 nL 1:10 ratio mixtures of cRNAs for rBIIa and beta 1 respectively.
Electrophysiology: Membrane current responses are recorded in frog Ringer solution containing 115 mM NaCl, 2 mM KCl, 1.8 mM CaCl2, 5 mM HEPES, pH 7.4. Electrical recordings are made using a conventional two-electrode voltage clamp (Dagan TEV-200) over periods ranging between 1–7 days following injection. The recording chamber is a simple gravity fed flow-through chamber (volume […] depending on adjustment of aspirator). Oocytes are placed in the recording chamber, impaled with electrodes and continuously perfused (5–15 mL min^−1) with frog Ringer's solution. The tested compounds are applied by bath perfusion.
Voltage protocols for evoking sodium channel currents: The standard holding potential for whole oocyte clamp is −120 mV. Standard current-voltage relationships are elicited by 40 ms depolarizing steps starting from −60 mV to +50 mV in 10 mV increments. Peak currents are measured as the maximum negative current after depolarizing voltage steps. The voltage from maximum current response is noted and used for the next voltage protocol.
The purpose is to find compounds that are state dependent modifiers of neuronal sodium channels. Preferably, the compounds have a low affinity for the rested/closed state of the channel, but a high affinity for the inactivated state. The following voltage protocol is used to measure a compounds affinity for the inactivated state. Oocytes are held at a holding potential of −120 mV. At this membrane voltage, nearly all of the channels are in the closed state. Then a 4 second depolarization is made to the voltage where the maximum current is elicited. At the end of this depolarization, nearly all the channels are in the inactivated state. A 10 ms hyperpolarizing step is then made in order to remove some channels from the inactivated state. A final depolarizing test pulse is used to assay the sodium current after this prolonged depolarization (see analysis below). Sodium currents are measured at this test pulse before and after the application of the tested compound. Data is acquired using PCLAMP 8.0 software and analyzed with […] software (Axon instruments). […]
Background: In two-electrode clamp one electrode senses voltage and the other passes current.
rBIIa/beta 1 sodium channels expressed in Xenopus oocytes, sequence (P04775 whole entry): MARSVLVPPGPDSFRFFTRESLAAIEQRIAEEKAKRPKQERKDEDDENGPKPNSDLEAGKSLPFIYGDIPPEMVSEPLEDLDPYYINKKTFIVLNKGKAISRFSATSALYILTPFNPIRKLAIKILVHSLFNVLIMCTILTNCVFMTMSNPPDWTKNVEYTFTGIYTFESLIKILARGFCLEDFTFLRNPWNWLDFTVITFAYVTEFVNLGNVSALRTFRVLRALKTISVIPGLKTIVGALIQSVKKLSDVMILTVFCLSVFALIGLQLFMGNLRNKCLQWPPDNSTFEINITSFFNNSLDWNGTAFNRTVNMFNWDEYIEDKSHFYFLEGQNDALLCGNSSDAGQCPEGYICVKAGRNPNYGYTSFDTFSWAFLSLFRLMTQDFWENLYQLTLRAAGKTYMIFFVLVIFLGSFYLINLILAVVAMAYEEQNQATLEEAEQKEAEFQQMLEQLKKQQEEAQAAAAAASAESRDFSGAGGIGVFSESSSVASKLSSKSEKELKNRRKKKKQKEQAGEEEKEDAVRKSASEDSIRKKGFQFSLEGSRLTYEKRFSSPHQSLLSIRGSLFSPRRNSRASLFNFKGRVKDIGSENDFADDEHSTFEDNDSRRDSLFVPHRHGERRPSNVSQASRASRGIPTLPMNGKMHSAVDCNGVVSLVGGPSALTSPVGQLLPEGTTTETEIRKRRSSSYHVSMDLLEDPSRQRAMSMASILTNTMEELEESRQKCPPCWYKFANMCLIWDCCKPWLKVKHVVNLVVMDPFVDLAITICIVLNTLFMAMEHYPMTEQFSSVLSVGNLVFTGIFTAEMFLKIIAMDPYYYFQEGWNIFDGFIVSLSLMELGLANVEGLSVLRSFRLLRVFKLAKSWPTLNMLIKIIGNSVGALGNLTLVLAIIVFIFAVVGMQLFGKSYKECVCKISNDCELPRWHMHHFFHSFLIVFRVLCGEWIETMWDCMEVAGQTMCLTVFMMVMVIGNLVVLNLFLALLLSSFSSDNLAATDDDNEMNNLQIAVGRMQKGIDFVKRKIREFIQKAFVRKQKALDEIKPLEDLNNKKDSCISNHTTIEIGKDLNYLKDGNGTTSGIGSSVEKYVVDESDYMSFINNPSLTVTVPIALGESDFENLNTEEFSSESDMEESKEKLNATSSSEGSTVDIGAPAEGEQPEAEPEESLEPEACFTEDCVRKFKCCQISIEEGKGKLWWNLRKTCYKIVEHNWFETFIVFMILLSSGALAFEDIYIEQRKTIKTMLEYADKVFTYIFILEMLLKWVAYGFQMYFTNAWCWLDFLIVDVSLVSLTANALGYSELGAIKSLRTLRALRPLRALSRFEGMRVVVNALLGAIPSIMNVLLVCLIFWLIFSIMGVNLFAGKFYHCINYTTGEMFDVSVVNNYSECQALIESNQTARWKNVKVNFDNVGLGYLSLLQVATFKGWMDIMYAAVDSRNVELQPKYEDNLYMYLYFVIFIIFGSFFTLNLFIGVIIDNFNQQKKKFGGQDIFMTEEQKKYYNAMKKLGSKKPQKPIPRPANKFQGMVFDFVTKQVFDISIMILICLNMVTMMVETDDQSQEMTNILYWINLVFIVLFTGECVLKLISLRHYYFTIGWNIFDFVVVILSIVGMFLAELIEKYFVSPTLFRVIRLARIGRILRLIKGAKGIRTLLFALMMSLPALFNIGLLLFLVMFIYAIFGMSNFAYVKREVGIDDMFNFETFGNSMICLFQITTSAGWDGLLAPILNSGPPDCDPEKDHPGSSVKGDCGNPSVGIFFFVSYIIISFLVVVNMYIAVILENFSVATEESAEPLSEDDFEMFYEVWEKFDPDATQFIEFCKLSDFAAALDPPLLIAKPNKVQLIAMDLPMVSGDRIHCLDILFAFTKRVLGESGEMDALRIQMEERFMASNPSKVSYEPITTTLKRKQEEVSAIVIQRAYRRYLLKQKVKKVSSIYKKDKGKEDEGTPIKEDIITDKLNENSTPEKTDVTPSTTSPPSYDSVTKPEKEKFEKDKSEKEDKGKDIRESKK
rBIIa/beta 1 sodium channels expressed in Xenopus oocytes, sequence (Q00954 19-218 partner): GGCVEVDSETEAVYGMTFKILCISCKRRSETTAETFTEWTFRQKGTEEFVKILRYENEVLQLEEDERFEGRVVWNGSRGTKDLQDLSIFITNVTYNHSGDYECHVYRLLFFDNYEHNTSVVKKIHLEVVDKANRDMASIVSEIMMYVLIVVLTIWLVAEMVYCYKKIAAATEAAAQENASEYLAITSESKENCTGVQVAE
Consider `O=C1CSC(C=Cc2ccccc2)N1CCN1CCCCC1` (centres unmarked), for which the Ki is 8790 nM.

The same assay, now with this note: apparent inhibition constant from single point inhibition data; rat brain type IIa/beta 1 Na+ channels in Xenopus oocytes; inactivated state; read-out: Ki (oocyte).
Regarding `O=C1CSC(c2cccc(Oc3ccccc3)c2)N1CCN1CCCCC1` (centres unmarked), the Ki was 430 nM.

Turning to `O=C1CSC(C=C(c2ccccc2)c2ccccc2)N1CCN1CCCCC1` (centres unmarked), the Ki worked out at 290 nM.

For `CC(C)(C)c1ccc(Oc2cccc(C3SCC(=O)N3CCN3CCCCC3)c2)cc1` (centres unmarked), the Ki was found to be 180 nM.

Consider `O=C1CSC(c2ccc(-c3ccc(Cl)cc3)o2)N1CCN1CCCCC1` (centres unmarked), for which the Ki worked out at 600 nM.

Turning to `O=C1CSC(c2cccc(Oc3ccc(Cl)c(Cl)c3)c2)N1CCN1CCCCC1` (centres unmarked), the Ki was 180 nM.

In the case of `O=C1CSC(c2cccc(OCc3ccccc3)c2)N1CCN1CCCCC1` (centres unmarked), the Ki came to 390 nM.

On to `O=C1CSC(c2cccc(Oc3ccc(Cl)cc3)c2)N1CCN1CCCCC1` (centres unmarked), for which the Ki was determined as 390 nM.

Turning to `O=C1CSC(c2ccc(Oc3ccc(F)cc3)cc2)N1CCN1CCCCC1` (centres unmarked), the Ki was determined as 500 nM.

On to `COc1ccc(Oc2cccc(C3SCC(=O)N3CCN3CCCCC3)c2)cc1` (centres unmarked), for which the Ki was determined as 800 nM.

On to `O=C1CSC(C#Cc2ccccc2)N1CCN1CCCCC1` (centres unmarked), for which the Ki was determined as 5350 nM.

On to `O=C1CSC(c2cccc3ccccc23)N1CCN1CCCCC1` (centres unmarked), for which the Ki came to 2830 nM.

As to `CC1SCC(=O)N1CCN1CCCCC1` (centres unmarked), the Ki is 70700 nM.

Take `O=C1CSC(C=C(c2ccccc2)c2ccccc2)N1CCN1CCCC1` (centres unmarked): the Ki was determined as 3480 nM.

Consider `CN(C)CCN1C(=O)CSC1C=C(c1ccccc1)c1ccccc1` (centres unmarked), for which the Ki was 2600 nM.

With `CN(C)CCN1C(=O)CSC1c1cccc(Oc2ccc(C(C)(C)C)cc2)c1` (centres unmarked), the Ki was 840 nM.

Consider `O=C1CSC(c2cccc(Oc3ccccc3)c2)N1C1CCN(Cc2ccccc2)CC1` (centres unmarked), for which the Ki amounted to 250 nM.

In the case of `O=C1CSC(c2cccc(OCc3ccccc3)c2)N1CCCn1ccnc1` (centres unmarked), the Ki came out at 6550 nM.

For `O=C1CSC(c2cccc(Oc3cccc(C(F)(F)F)c3)c2)N1Cc1ccccn1` (centres unmarked), the Ki is 3400 nM.

As for `CN(C)CCN1C(=O)CSC1c1cccc(Oc2cc(Cl)cc(Cl)c2)c1` (centres unmarked), the Ki came out at 840 nM.

Regarding `CN(C)CCCN1C(=O)CSC1c1cccc(Oc2cc(Cl)cc(Cl)c2)c1` (centres unmarked), the Ki worked out at 1880 nM.

As for `O=C1CSC(c2ccc(Oc3ccc(F)cc3)cc2)N1C1CCN(Cc2ccccc2)CC1` (centres unmarked), the Ki was 280 nM.

On to `O=C1CSC(c2cccc(Oc3cccc(C(F)(F)F)c3)c2)N1CCN1CCCC1` (centres unmarked), for which the Ki is 420 nM.

As to `CCn1c2ccccc2c2cc(C3SCC(=O)N3CCN3CCCC3)ccc21` (centres unmarked), the Ki came out at 7400 nM.

As to `O=C1CSC(c2cccc(OCc3ccccc3)c2)N1CCN1CCCC1` (centres unmarked), the Ki is 3430 nM.

Consider `O=C1CSC(c2cccc(Oc3ccc(Cl)c(Cl)c3)c2)N1CCN1CCOCC1` (centres unmarked), for which the Ki was found to be 810 nM.

On to `O=C1CSC(c2cccc(Oc3ccc(Cl)c(Cl)c3)c2)N1CCN1CCCC1` (centres unmarked), for which the Ki turned out to be 720 nM.

Regarding `O=C1CSC(c2cccc(Oc3cccc(C(F)(F)F)c3)c2)N1CCCn1ccnc1` (centres unmarked), the Ki worked out at 1150 nM.

On to `CN(C)CCCN1C(=O)CSC1c1cccc(Oc2cccc(C(F)(F)F)c2)c1` (centres unmarked), for which the Ki worked out at 2750 nM.

As to `O=C1CSC(c2cccc(Oc3cccc(C(F)(F)F)c3)c2)N1CCNCc1ccccc1` (centres unmarked), the Ki was found to be 50 nM.

Take `CC(C)N(CCN1C(=O)CSC1c1cccc(Oc2cccc(C(F)(F)F)c2)c1)C(C)C` (centres unmarked): the Ki amounted to 30 nM.

Consider `CN(C)CC(C)(C)CN1C(=O)CSC1c1cccc(Oc2ccc(Cl)c(Cl)c2)c1` (centres unmarked), for which the Ki came out at 390 nM.

`CC1CCCCN1CCCN1C(=O)CSC1c1cccc(Oc2ccc(Cl)c(Cl)c2)c1` (centres unmarked): the Ki amounted to 880 nM.

Turning to `CN(C)CC(C)(C)CN1C(=O)CSC1c1cccc(Oc2cccc(C(F)(F)F)c2)c1` (centres unmarked), the Ki worked out at 230 nM.

In the case of `CC1CCCCN1CCCN1C(=O)CSC1c1cccc(Oc2cccc(C(F)(F)F)c2)c1` (centres unmarked), the Ki came out at 1320 nM.
